This is an account of results in patent publication US10113154B2, “Method for producing steviol glycoside” (SUNTORY HOLDINGS LIMITED, priority 2012, dated 2018).

In assay [1] the target is T1, UGT85C2 and UGT91D-like 3 (Stevia rebaudiana, UniProt Q6VAB0, A65S/E71Q/K220T).
T1 construct: The ORF fragment of about 1.4 kb from UGT85C2 was excised using the restriction enzyme sites of NdeI and BglII; made in house; host or cells: Escherichia coli BL21 (DE3), stated for UGT85C2 only
Description: Simultaneous reaction of UGT85C2 and UGT91D-like 3 (LC-MS analysis). As to conditions: concluded from simultaneous reaction, FIG. 4 panel 3. In kind it is biochemical.

The test system of assay [2] is UGT85C2 and UGT91D-like 3. The assay is described as above. In kind it is biochemical, stevia. As to conditions: FIG. 4 panel 3.
The target of the next assay is T2, UGT85C2 (Stevia rebaudiana, UniProt Q6VAB0, A65S/E71Q/K220T).
T2 construct: The ORF fragment of about 1.4 kb from UGT85C2 was excised using the restriction enzyme sites of NdeI and BglII; made in house; host or cells: Escherichia coli BL21 (DE3)
T2 sequence (Q6VAB0 whole entry A65S/E71Q/K220T, the tested form may be a part): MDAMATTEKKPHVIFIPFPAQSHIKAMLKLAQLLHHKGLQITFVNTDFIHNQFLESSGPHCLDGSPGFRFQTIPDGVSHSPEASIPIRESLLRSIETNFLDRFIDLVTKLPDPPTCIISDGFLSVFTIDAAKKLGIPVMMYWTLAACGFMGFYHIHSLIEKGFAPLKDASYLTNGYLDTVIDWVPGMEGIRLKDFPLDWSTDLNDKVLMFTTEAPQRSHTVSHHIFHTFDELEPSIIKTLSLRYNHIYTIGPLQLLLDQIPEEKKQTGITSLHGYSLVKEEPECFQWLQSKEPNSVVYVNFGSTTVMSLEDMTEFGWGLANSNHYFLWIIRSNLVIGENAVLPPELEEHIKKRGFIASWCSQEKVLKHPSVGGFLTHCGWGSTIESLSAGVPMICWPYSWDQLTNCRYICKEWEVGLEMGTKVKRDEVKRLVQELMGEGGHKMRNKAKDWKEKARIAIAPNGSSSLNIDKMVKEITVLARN
Description: Assay for enzyme activity of UGT85C2 (glucosylation with UDP-glucose, LC-MS analysis). Format: biochemical. As to conditions: 0.1 mM substrate, 2 mM UDP-glucose, pH 7.0, 30° C., one hour; FIG. 4 panel 1. The procedure: Standard conditions for the enzyme reaction were as follows. A reaction solution (2 mM UDP-glucose, 0.1 mM glycosyl acceptor substrate (steviol), 100 mM potassium phosphate buffer (pH 7.0) and 25 μl of purified UGT85C2 enzyme solution) was prepared in distilled water to become 50 μl, and reacted at 30° C. for an hour. The LC-MS analysis was performed for 5 μl of the enzyme reaction solution under the following conditions.
Column: Waters Sunfire C18 3.5 um 2.0 mm I.D.×20 mm
Moving phase: A: MilliQ Water (+0.05% formic acid), B: MeCN
Gradient: linear gradient of B from 15% to 55% (20 mins.)

T1 sequence (Q6VAB0 whole entry A65S/E71Q/K220T, the tested form may be a part): as above

On to `C=C1C[C@@]23CC[C@H]4[C@@](C)(CCC[C@@]4(C)C(=O)O)[C@@H]2CC[C@]1(O[C@@H]1O[C@H](CO)[C@@H](O)[C@H](O)[C@H]1O[C@@H]1O[C@H](CO)[C@@H](O)[C@H](O)[C@H]1O)C3` [steviolbioside], for which the “glucosylation of the carboxyl at C19-position by UGT85C2 protein” value in assay [1] is “glucosylates the carboxyl at C19-position of steviolbioside”.
In the case of `C=C1C[C@@]23CC[C@H]4[C@@](C)(CCC[C@@]4(C)C(=O)O)[C@@H]2CC[C@]1(O)C3` [steviol], in assay [2], the “products formed by simultaneous reaction of UGT85C2 and UGT91D-like 3” value is “steviolbioside (FIG. 4: panel 3: peak C) and stevioside (FIG. 4: panel 3: peak E) were formed”. Further, at UGT85C2, the “glucosylation of the carboxyl at C19-position by UGT85C2, product additionally formed” value is recorded as “rubusoside (FIG. 4: panel 1: peak D) with the carboxyl at C19-position being glucosylated was additionally formed” and the “glucosylation of the hydroxyl at C-13 position by UGT85C2, product formed” value is “glucosylated (FIG. 4, panel 1: peak A) to form steviolmonoside”.
